Reference: US6894161B2, “Methods and compositions for photo-cross linking photoactive compounds to target tissue” (The University of British Columbia, priority 2001, dated 2005)

Test: Cyclic voltammetry, redox potentials
Assay type: physicochemical
Details: dichloromethane at 22° C. versus Fc
Description: Without being bound by theory, it is believed that the observed photochemical reaction with long wavelength light is not the result of intramolecular energy transfer from the porphyrin to the pyrazoline because estimations indicate that it would be an extremely endothermic process. With respect to the possibility that a photoinduced electron transfer may be responsible, it is first noted that there is no precedence for this reaction with pyrazolines. If the porphyrin and pyrazoline are considered as separate molecules, however, the estimation of the feasibility of an electron transfer process may be conducted as follows. Generally, a photochemical electron transfer occurs only when it is exergonic or <5 kcal mol^−1 endergonic (Eberson, L. Electron Transfer Reactions in Organic Chemistry, Springer-Verlag: Berlin Germany, 1987). The free energy change for a photoinduced electron transfer can be determined from the oxidation potential of the electron donor (E°D), the reduction potential of the electron acceptor (E°A) and the excited state energy of the sensitizer (E0,0), using the relationship ΔGET=23.06 kcal mol^−1[(E°D−E°A)−E0,0]−C; where C is a term that accounts for solvation. In order to estimate the feasibility of electron transfer using this relationship, the redox properties of the molecules must be known. The starting materials MePPP (18), the pyrazoline (19), and the photoproduct cyclopropane (20) have reduction and oxidation potentials as shown in Table 2.
The radical anions and dianions are therefore stable on the time scale of these experiments, with no chemistry occurring on addition of electrons to these molecules. If any chemical reactions were occurring from the radical anion or dianion, the CV's would be irreversible. […] On reduction, two consecutive electrons are accepted by the porphyrin macrocycle in each of 18, 19 and 20. The oxidations are also reversible; the only notable feature of the oxidation potentials is that 19 and 20 are somewhat easier to oxidize than MePPP. […]

C=Cc1c(C)c2cc3nc(c4c5[nH]c(cc6nc(cc1[nH]2)C(C)=C6CC)c(C)c5C(=O)C4)C(CCC(=O)OC)C3C (stereo not drawn) [Compound 18, Methylpyropheophorbide]
Oxidation 1 (redox potential): 0.61
Reduction 1 (redox potential): −1.47
Reduction 2 (redox potential): −1.73
